From publication PMC12643529 (ACS Infectious Diseases, 2025)
Where two headings read alike, the source gives them in different places.

Tests used:
[1] = system: bloodstream form of T. brucei; assay: alamarBlue (resazurin) antitrypanosomal assay; type: cell-based, Trypanosoma brucei; details: Trypanosoma brucei; bloodstream form, 72 h, alamarBlue/resazurin; error as σ
HeLa cells = assay: alamarBlue antiproliferative assay, HeLa; type: cell-based, human; details: Homo sapiens, HeLa; 72 h, alamarBlue
HT-29 cells = assay: alamarBlue antiproliferative assay, HT-29; type: cell-based, human; details: Homo sapiens, HT-29; 72 h, alamarBlue
THP-1 cells = assay: alamarBlue cytotoxicity assay, PMA-differentiated THP-1; type: cell-based, human; details: Homo sapiens, PMA-differentiated THP-1, 72 h
BSF T. brucei parasites = assay: CellTiter-Glo luminescent cell viability assay; type: cell-based; details: Trypanosoma brucei, 72 h, read-out: IC50 T. brucei (CellTiter-Glo)
Protocol: Ten μL portion of Cell Titer Glo was then added to every well, and after 10 min of incubation at room temperature, the luminescence of the plates was recorded using the Infinite F200 plate reader (TECAN Austria, GmbH). […] Presented data are the mean value of three independent measurements, all of them conducted under triplicate conditions.

[2] = system: intracellular amastigote form of L. major; assay: Luciferase assay, intracellular amastigotes in THP-1 macrophages; type: cell-based, Leishmania major; details: Leishmania major
Protocol: The antileishmanial activity of the compounds against the intracellular form of L. major was evaluated using the Luciferase Assay System kit from Promega. THP-1 cells were seeded at a density of 3 × 10^5 cells/mL in 96-well plates (100 μL/well) and treated with 20 ng/mL PMA (phorbol 12-myristate 13-acetate, Sigma) for 48 h to induce differentiation. Postdifferentiation, the cells were washed, and fresh medium was added (100 μL/well) before being reincubated. Following an additional 24 h, the wells were washed, and 50 μL of L. major parasites at a density of 1.5 × 10^6 parasites/mL (suspended in RPMI-1640 medium 5% hiFBS and 5% penicillin/streptomycin) were added to the wells. The plates were then incubated at 35 °C in 5% CO2. After 24 h, the wells were washed three times with PBS, and fresh medium with increasing concentrations of compounds was added (100 μL/well). After another 72 h of incubation, the cells were then treated with 25 μL of lysis buffer and stored at −80 °C. Following 24 h, 25 μL of luciferase enzyme substrate was added to each well, and the luciferase activity of the amastigotes was determined using a TECAN Infinite F200 microplate reader. […] Data were presented as the average of at least three independent measurements, each conducted under triplicate conditions.
Parasite and cell culturing […]
Leishmania major (MHOM/IL/80/Friedlin) promastigotes and its derivative luminescent strain L. major LucRE9 with the luciferase gene integrated into the parasite genome (LUC) were cultured at 28 °C, 5 % CO2 in modified RPMI-1640 medium (Invitrogen, Carlsbad, CA) supplemented with 10 % hiFBS6, including […] blasticidin in the LucRE9 strain. 7 Parasites were maintained in culture in their […] growth phase (below 2 million T. brucei parasites per mL, ,10 million L. major parasites per mL for promastigotes experiments), and in the stationary phase , 20 million L. major parasites per mL for THP -1 infection experiments.
MRC-5 cell line (human lung fibroblast) was grown in monolayer at 37 °C, 5 % CO2 in DMEM medium (1 g/L glucose) supplemented with 10% hiFBS, 100 U/mL penicillin, […] streptomycin and 2 mM L-glutamine.8
THP-1 cells (human monocytic cell line) were maintained in RPMI-1640 medium supplemented with 10% heat-inactivated fetal bovine serum (hiFBS) and 5 % penicillin/streptomycin (37 °C, 5 % CO2, and 100 % humidity). […]

[3] = system: F21T K+ (human telomeric G-quadruplex, potassium buffer); type: binding; details: oligonucleotide 200 nM
[4] = system: F21T Na+ (human telomeric G-quadruplex, sodium buffer); type: binding; details: oligonucleotide 200 nM
[5] = system: FEbr1T (T. brucei G-quadruplex); assay: FRET melting assay, FEbr1T; type: binding; details: oligonucleotide 200 nM
[6] = system: FMycT (c-Myc promoter G4); assay: FRET melting assay, FMycT; type: binding; details: oligonucleotide 200 nM
[7] = system: Fmt6363T (human mitochondrial G-quadruplex); assay: FRET melting assay, Fmt6363T; type: binding; details: oligonucleotide 200 nM
[8] = system: F10T (hairpin duplex DNA); type: binding; details: oligonucleotide 200 nM
mt6363 G4 = assay: UV-vis absorbance titration; type: binding, human; details: ligand 10 μM, 100 mM potassium phosphate, pH 7.4; numbers only in Figure 6
Protocol: Furthermore, the analysis confirmed its selectivity for G4 structures over duplex DNA.
6 (A) Equilibrium binding constants calculated for compounds 2b and 2c with several G-quadruplexes (telo23, Ebr1, and mt6363) and a duplex DNA (ds26) sequence. (B) UV–vis titration of 2b with telo23, mt6363, Ebr1, and ds26. Buffer = 100 mM potassium phosphate, pH 7.4. Ligand concentration: 10 μM. […]
oligonucleotides were at a concentration of 5 µM in potassium phosphate buffer (100 mM, pH 7.4). Data processing was carried out using Python and Prism 10 (GraphPad Software) with a 4-point second order smoothing polynomial applied to all spectra. Observed ellipticities were converted to molar ellipticity.
Absorbance spectra were recorded on a Cary 60 UV-Visible spectrophotometer using a room-light immune fibre optic probe with 10 mm path length. The UV-Vis spectra were recorded between 700 – 300 nm and were corrected for background and buffer absorbance.
In the titrations, the concentration of ligand was fixed at 10 µM in an initial volume of 500 µL in potassium phosphate buffer (100 mM, pH 7.4). […]
Table S1. Synthesis and photophysical data in acetonitrile solution (absorption, λabs, fluorescence emission maxima, λfluo, molar absorptivity, Ɛ and fluorescence quantum yield, ɸF) for the 2-ethenyl-benzothiazolium derivatives 2a-j. […]

[9] = system: telo23 (DNA, G4) TAGGGTTAGGGTTAGGGTTAGGG; assay: CD titration; details: K+ (100 mM potassium phosphate); pH 7.4, 20 °C, DNA 5 µM
[10] = system: Ebr1 (DNA, G4) GGGCAGGGGGTGATGGGGAGGAGCCAGGG; assay: CD titration; details: K+ (100 mM potassium phosphate); pH 7.4, 20 °C, DNA 5 µM
[11] = system: mt6363 (DNA, G4) AGGGACGCGGGCGGGGGATATAGGGT; assay: CD titration; details: K+ (100 mM potassium phosphate); pH 7.4, 20 °C, DNA 5 µM
[12] = system: Fmt6363T (DNA, G4) AGGGACGCGGGCGGGGGATATAGGGT; assay: FRET melting; details: K+ (10 mM KCl), 90 mM LiCl; 10 mM Li cacodylate; compound 10 µM, DNA 200 nM
[13] = system: F10T (DNA, hairpin, hexaethylene glycol (HEG, [(-CH2CH2O-)6]) linker between 10 and 11) TATAGCTATATATAGCTATA; assay: FRET melting; details: K+ (10 mM KCl), 90 mM LiCl; 10 mM Li cacodylate; compound 10 µM, DNA 200 nM
[14] = system: bloodstream form of T. brucei; design: method as in number not given; details: footnote c 'From ref', ref number not given; cited from earlier work
[15] = system: promastigote form of L. major; design: method as in number not given; details: promastigotes; footnote c 'From ref', ref number not given; cited from earlier work
MRC-5 cells [16] = system: MRC-5 cells; design: method as in number not given; details: footnote c 'From ref', ref number not given; cited from earlier work
[17] = system: promastigote form of L. major; assay: MTT-based antileishmanial assay, promastigotes; type: cell-based, Leishmania major; details: Leishmania major; promastigotes, 72 h, MTT; error as σ
Protocol: The antileishmanial activity of the compounds against the promastigote form of L. major, the […] was determined using an MTT-based assay (Sigma-Aldrich). Stock solutions of the compounds were prepared in DMSO with the final DMSO percentage in each well maintained below 1%. 4 × 10^6 parasites per mL were incubated at 28 °C in 96-well plates (50 μL/well) either alone or in the presence of increasing concentrations of compounds DMSO for 72 h. After the incubation period, 10 μL of MTT (5 mg/mL) was added to each well, and the parasites were incubated for 4 h at 28 °C. Subsequently, cell lysis was performed using 50 μL/well of 20% SDS. […] Data were presented as the average of at least three independent measurements, each conducted under triplicate conditions. […] “single marker” […] S7

MRC-5 cells [18] = assay: alamarBlue cytotoxicity assay, MRC-5; type: cell-based; details: MRC5, human lung fibroblasts, 72 h
other G4 sequences = assay: FRET melting assay, other examined G4s; type: binding; details: ligand 10 μM; range over the remaining G4s
Protocol: The stabilization of G4 structures was initially evaluated by using the Förster resonance energy transfer (FRET) melting assay. This analysis evaluated the binding of the compounds against four G4-forming oligonucleotides and a hairpin duplex sequence to determine both G4:duplex and G4:G4 selectivity.
FRET melting assays were performed to assess ligand affinity for duplex and G-quadruplex DNA.
proximity of the donor and quencher result in no observed fluorescence from FAM, since energy
is transferred non-radiatively to TAMRA by FRET. As the temperature is raised and the secondary
structure denatures, the fluorophores move further apart and the fluorescence signal increases.
From the resulting curve, the characteristic melting temperature (Tmax, also referred to as Tm) is
defined as the temperature which corresponds to the maxima of the first derivative of the
normalised fluorescence signal. The change in melting temperature (ΔTm) induced by the presence
of a small molecule ligand provides an indication of the ligand’s ability to stabilise the DNA
co-workers 12 on an AriaMx qPCR instrument.
min, before heating at 1 °C/min to 96 °C in 1 °C increments, followed by monitoring the
fluorescence output at each increment for 1 min. The fluorescence emission of FAM was followed
The final concentration of oligonucleotide was 200 nM in all cases. For F21T in Na+ conditions, […]

[19] = system: F21T (DNA, G4) GGGTTAGGGTTAGGGTTAGGG; assay: FRET melting; details: K+ (10 mM KCl), 90 mM LiCl; 10 mM Li cacodylate; compound 10 µM, DNA 200 nM
[20] = system: FEbr1T (DNA, G4) GGGCAGGGGGTGATGGGGAGGAGCCAGGG; assay: FRET melting; details: K+ (10 mM KCl), 90 mM LiCl; 10 mM Li cacodylate; compound 10 µM, DNA 200 nM

CN(C)c1ccc(/C=C/c2sc3ccccc3[n+]2C)cc1.[I-] [compound 2b]
IC50 [1]: 0.019 ± 0.0053 nM | IC50 (HeLa cells): 9280 ± 770 nM | IC50 (HT-29 cells): 6560 ± 490 nM | IC50 (THP-1 cells): 480 ± 110 nM | IC50 (BSF T. brucei parasites): 0.55 ± 0.23 nM | IC50 ([2]; THP-1, intracellular amastigotes): 0.48 nM | IC50 ([2]; intracellular amastigotes in THP-1 macrophages, 72 h, luciferase): 0.484 ± 0.617 nM | ΔTm F21T K+ ([3]; ligand 10 μM, 10 mM KCl): 13.1 ± 0.5 °C | ΔTm F21T Na+ ([4]; ligand 10 μM, 100 mM NaCl): 9.1 ± 0.3 °C | ΔTm FEbr1T ([5]; ligand 10 μM, 10 mM KCl): 13.1 °C | ΔTm FMycT ([6]; ligand 10 μM, 1 mM KCl): 8.6 ± 0.9 °C | ΔTm Fmt6363T ([7]; ligand 10 μM, 10 mM KCl): 19.8 °C | ΔTm F10T ([8]; ligand 10 μM, 10 mM KCl): 2.3 ± 0.2 °C | binding affinity (equilibrium binding constant) (mt6363 G4): higher affinity for the mt6363 G4 structure compared with the other G4 sequences | binding [9]: yes | binding [10]: yes | binding [11]: yes | ΔTm [12]: 19.8 ± 0.4 °C | ΔTm [13]: 2.3 ± 0.2 °C

C[n+]1ccc(-c2c3nc(c(-c4cc[n+](C)cc4)c4ccc([nH]4)c(-c4cc[n+](C)cc4)c4ccc([nH]4)c(-c4cc[n+](C)cc4)c4nc2C=C4)C=C3)cc1 [TMPyP4, reference compound]
ΔTm F21T K+ ([3]; positive control at 1 μM): 16.4 ± 0.4 °C | ΔTm F21T Na+ ([4]; positive control at 1 μM): 10.4 ± 0.4 °C | ΔTm FEbr1T ([5]; positive control at 1 μM): 12.4 ± 0.9 °C | ΔTm FMycT ([6]; positive control at 1 μM): 12.6 ± 1.1 °C | ΔTm Fmt6363T ([7]; positive control at 1 μM): 7.1 ± 0.4 °C | ΔTm F10T ([8]; positive control at 1 μM): 1.7 ± 0.1 °C | IC50 [14]: > 10000 nM | IC50 [15]: 20800 ± 4860 nM | IC50 (MRC-5 cells [16]): > 25000 nM

Cc1ccc2c(c1)sc(-c1ccc(N(C)C)cc1)[n+]2C [ThT, Thioflavin T, reference compound]
IC50 [1]: 4.7 ± 0.3 nM | IC50 [17]: 23 ± 0.2 nM | IC50 (MRC-5 cells [18]): 183 ± 38 nM | IC50 (BSF T. brucei parasites; BSF parasites, luminescence): 62 ± 3 nM | ΔTm F21T K+ ([3]; ligand 10 μM, 10 mM KCl): 5.5 ± 0.2 °C | ΔTm F21T Na+ ([4]; ligand 10 μM, 100 mM NaCl): 1.4 ± 0.2 °C | ΔTm FEbr1T ([5]; ligand 10 μM, 10 mM KCl): 4.5 ± 0.7 °C | ΔTm FMycT ([6]; ligand 10 μM, 1 mM KCl): 15.0 °C | ΔTm Fmt6363T ([7]; ligand 10 μM, 10 mM KCl): 2.9 ± 0.4 °C | ΔTm F10T ([8]; ligand 10 μM, 10 mM KCl): 0.1 ± 0.1 °C | ΔTm for the other examined G4 sequences (other G4 sequences): 1.4–5.5 °C | ΔTm [19]: 5.5 ± 0.2 °C | ΔTm [20]: 4.5 ± 0.7 °C | ΔTm [12]: 2.9 ± 0.4 °C | ΔTm [13]: 0.1 ± 0.1 °C
